Test results as given in patent publication US20240083861A1, “HSD17B13 INHIBITORS AND USES THEREOF” (FL2022-001, Inc., priority 2020, published 2024).

Target: T1, Recombinant human HSD17B13 enzyme (Homo sapiens, UniProt Q7Z5P4)
T1 sequence (Q7Z5P4 20-300): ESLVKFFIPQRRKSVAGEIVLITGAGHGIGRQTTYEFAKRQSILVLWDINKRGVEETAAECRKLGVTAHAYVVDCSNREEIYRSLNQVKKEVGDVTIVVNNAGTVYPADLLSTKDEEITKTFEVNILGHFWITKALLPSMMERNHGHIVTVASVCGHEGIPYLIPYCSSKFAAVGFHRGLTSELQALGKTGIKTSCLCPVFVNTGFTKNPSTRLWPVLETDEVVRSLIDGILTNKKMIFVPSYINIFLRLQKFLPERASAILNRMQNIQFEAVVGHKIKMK
Experiment: HSD17b13 NAD(P)H-Glo biochemical assay
Conditions: 50 uM estradiol, 1 mM NAD+, NAD(P)H-Glo luminescence; read-out: HSD17β13 IC50
Procedure, shortened: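 Recombinant human HSD17B13 in 20 mM Tris pH7.4 with 0.002% Tween-20 and 0.02% BSA was preincubated with inhibitor for 20 minutes at RT. The reaction ran 3 hours at 37° C with 50 uM estradiol and 1 mM NAD+ (final). NADH formed was detected by NAD(P)H-Glo luminescence after 1 hour at RT.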

IC50 [µM]	Compound
< 0.1	CC(=O)N1CCC(N(C)c2ncc3c(-c4cc(C(F)(F)F)c(F)c(O)c4F)nn(C)c3n2)CC1 [Compound 19.01, 1-(4-((3-(2,4-Difluoro-3-hydroxy-5-(trifluoromethyl)phenyl)-1-methyl-1H-pyrazolo[3,4-d]pyrimidin-6-y1)(methyl)amino)piperidin-1-yl)ethan-1-one]
< 0.1	Cn1nc(-c2cc(C(F)(F)F)c(F)c(O)c2F)c2cnc(N3CCOC(c4ccccc4)C3)nc21 (stereo not drawn) [Compound 18.32, 2,6-Difluoro-3-(1-methyl-6-(2-phenylmorpholino)-1H-pyrazolo[3,4-d]pyrimidin-3-y1)-5-(trifluoromethyl)phenol]
< 0.1	Cn1nc(-c2cc(C(F)(F)F)c(F)c(O)c2F)c2cnc(N3CCC4(CCCC(=O)N4)CC3)nc21 [Compound 18.26, 9-(3-(2,4-Difluoro-3-hydroxy-5-(trifluoromethyl)phenyl)-1-methyl-1H-pyrazolo[3,4-d]pyrimidin-6-yl)-1,9-diazaspiro[5.5]undecan-2-one]
0.1 to 1	O=C(c1ccc2oc(-c3cc(C(F)(F)F)c(F)c(O)c3F)nc2c1)N1CCC1 [Compound 1.17, Azetidin-1-yl(2-(2,4-difluoro-3-hydroxy-5-(trifluoromethyl)phenyl)benzo[d]oxa-zol-5-yl)methanone]
< 0.1	Cn1nc(-c2cc(C(F)(F)F)c(F)c(O)c2F)c2cnc(N3CCOCC3C3CCCCC3)nc21 (stereo not drawn) [Compound 18.130, 3-(6-(3-Cyclohexylmorpholino)-1-methyl-1H-pyrazolo[3,4-d]pyrimidin-3-y1)-2,6-difluoro-5-(trifluoromethyl)phenol]
< 0.1	COCC1(Nc2cc3c(cn2)c(-c2cc(C(F)(F)F)c(F)c(O)c2F)nn3C)CCC1 [Compound 9.98, 2,6-Difluoro-3-(6-((1-(methoxymethyl)cyclobutyl)amino)-1-methyl-1H-pyrazolo[4,3-c]pyridin-3-yl)-5-(trifluoromethyl)phenol]
0.1 to 1	Cn1nc(-c2cc(C(F)(F)F)c(F)c(O)c2F)c2cnc(N3CCC(C(N)=O)CC34CC4)cc21 (stereo not drawn) [Compound 9.85, 4-(3-(2,4-Difluoro-3-hydroxy-5-(trifluoromethyl)phenyl)-1-methyl-1H-pyrazolo[4,3-c]pyridin-6-yl)-4-azaspiro[2.5]octane-7-carboxamide]
< 0.1	CN(c1cc2c(cn1)c(-c1cc(C(F)(F)F)c(F)c(O)c1F)nn2C)C1CCCOC1 (stereo not drawn) [Compound 9.44, 2,6-Difluoro-3-(1-methyl-6-(methyl(tetrahydro-2H-pyran-3-yl)amino)-1H-pyrazolo[4,3-c]pyridin-3-yl)-5-(trifluoromethyl)phenol]
< 0.1	Cn1nc(-c2cc(C(F)(F)F)c(F)c(O)c2F)c2cnc(N3CCOCC3C3CCC3)nc21 (stereo not drawn) [Compound 18.104, 3-(6-(3-Cyclobutylmorpholino)-1-methyl-1H-pyrazolo[3,4-d]pyrimidin-3-y1)-2,6-difluoro-5-(trifluoromethyl)phenol]
< 0.1	Cn1nc(-c2cc(C(F)(F)F)c(F)c(O)c2F)c2cnc(N3CCOC(C4CCCCC4)C3)nc21 (stereo not drawn) [Compound 18.113, 3-(6-(2-Cyclohexylmorpholino)-1-methyl-1H-pyrazolo[3,4-d]pyrimidin-3-yl)-2,6-difluoro-5-(trifluoromethyl)phenol]
< 0.1	Cn1nc(-c2cc(C(F)(F)F)c(F)c(O)c2F)c2cnc(N3CCOCC3(C)C)cc21 [Compound 9.31, 3-(6-(3,3-Dimethylmorpholino)-1-methyl-1H-pyrazolo[4,3-c]pyridine-3-yl)-2,6-difluoro-5-(trifluoromethyl)phenol]
0.1 to 1	Cn1nc(-c2cc(C(F)(F)F)c(F)c(O)c2F)c2ncc(N3CCN(S(C)(=O)=O)CC3)nc21 [Compound 12, 2,6-Difluoro-3-(1-methyl-6-(4-(methylsulfonyl)piperazin-1-yl)-1H-pyrazolo[3,4-b]pyrazin-3-yl)-5-(trifluoromethyl)phenol]
< 0.1	Cn1nc(-c2cc(C(F)(F)F)c(F)c(O)c2F)c2cnc(N3CCC(O)(c4ccncc4)CC3)nc21 [Compound 18.97, 1-(3-(2,4-Difluoro-3-hydroxy-5-(trifluoromethyl)phenyl)-1-methyl-1H-pyrazolo[3,4-d]pyrimidin-6-yl)-4-(pyridin-4-yl)piperidin-4-ol]
< 0.1	Cn1nc(-c2cc(C(F)(F)F)c(F)c(O)c2F)c2cnc(N3CCN(C(=O)Nc4ccccc4)CC34CC4)cc21 [Compound 21.04, 4-(3-(2,4-Difluoro-3-hydroxy-5-(trifluoromethyl)phenyl)-1-methyl-1H-pyrazolo[4,3-c]pyridin-6-y1)-N-phenyl-4,7-diazaspiro[2.5]octane-7-carboxamide]
< 0.1	Cn1nc(-c2cc(C(F)(F)F)c(F)c(O)c2F)c2ccc(N3CCOCC34CC4)nc21 [Compound 9.03, 2,6-Difluoro-3-(1-methyl-6-(7-oxa-4-azaspiro[2.5]octan-4-yl)-1H-pyrazolo[3,4-b]pyridin-3-yl)-5-(trifluoromethyl)phenol]
< 0.1	Cn1nc(-c2cc(C(F)(F)F)c(F)c(O)c2F)c2cnc(N3CCNC4(CC4)C3)nc21 [Compound 18.18, 2,6-Difluoro-3-(1-methyl-6-(4,7-diazaspiro[2.5]octan-7-y1)-1H-pyrazolo[3,4-d]pyrimidin-3-y1)-5-(trifluoromethyl)phenol]
< 0.1	CNC(=O)C1CN(c2cc3c(cn2)c(-c2cc(C(F)(F)F)c(F)c(O)c2F)nn3C)CCO1 (stereo not drawn) [Compound 9.80, 4-(3-(2,4-Difluoro-3-hydroxy-5-(trifluoromethyl)phenyl)-1-methyl-1H-pyrazolo[4,3-c]pyridin-6-yl)-N-methylmorpholine-2-carboxamide]
< 0.1	Cn1nc(-c2cc(C(F)(F)F)c(F)c(O)c2F)c2cnc(N3CCC(NS(C)(=O)=O)CC3)nc21 [Compound 18.23, N-(1-(3-(2,4-Difluoro-3-hydroxy-5-(trifluoromethyl)phenyl)-1-methyl-1H-pyrazolo[3,4-d]pyrimidin-6-yl)piperidin-4-yl)methanesulfonamide]
0.1 to 1	CCN1CCN(c2ncc3c(-c4cc(C(F)(F)F)c(F)c(O)c4F)nn(C)c3n2)CC1=O [Compound 18.19, 4-(3-(2,4-Difluoro-3-hydroxy-5-(trifluoromethyl)phenyl)-1-methyl-1H-pyrazolo[3,4-d]pyrimidin-6-yl)-1-ethylpiperazin-2-one]
< 0.1	Cn1nc(-c2cc(C(F)(F)F)c(F)c(O)c2F)c2cnc(N3CCOCC3C3(C)CC3)cc21 (stereo not drawn) [Compound 9.61, 2,6-Difluoro-3-(1-methyl-6-(3-(1-methylcyclopropyl)morpholino)-1H-pyrazolo[4,3-c]pyridin-3-yl)-5-(trifluoromethyl)phenol]
< 0.1	Cn1nc(-c2cc(C(F)(F)F)c(F)c(O)c2F)c2cnc(N3CCOCC3c3ccccc3)nc21 (stereo not drawn) [Compound 18.46, 2,6-Difluoro-3-(1-methyl-6-(3-phenylmorpholino)-1H-pyrazolo[3,4-d]pyrimidin-3-y1)-5-(trifluoromethyl)phenol]
< 0.1	COCC1(N(C)c2ncc3c(-c4cc(C(F)(F)F)c(F)c(O)c4F)nn(C)c3n2)CCC1 [Compound 18.20, 2,6-Difluoro-3-(6-((1-(methoxymethyl)cyclobutyl)(methy 1)amino)-1-methy1-1H-pyrazolo[3,4-d]pyrimidin-3-y1)-5-(trifluoromethyl)phenol]
< 0.1	Cn1nc(-c2cc(C(F)(F)F)c(F)c(O)c2F)c2cnc(N3CCC(O)(C4CC4)CC3)nc21 [Compound 18.93, 4-Cyclopropyl-1-(3-(2,4-difluoro-3-hydroxy-5-(trifluoromethyl)phenyl)-1-methyl-1H-pyrazolo[3,4-d]pyrimidin-6-y1)piperidin-4-ol]
< 0.1	CN(CC1CCOCC1)c1cc2c(cn1)c(-c1cc(C(F)(F)F)c(F)c(O)c1F)nn2C [Compound 9.64, 2,6-Difluoro-3-(1-methyl-6-(methyl((tetrahydro-2H-pyran-4-yl)methyl)amino)-1H-pyrazolo[4,3-c]pyridin-3-yl)-5-(trifluoromethyl)phenol]
< 0.1	Cn1nc(-c2cc(C(F)(F)F)c(F)c(O)c2F)c2cc(F)c(N3CCOC4(CCC4)C3)nc21 [Compound 9.108, 2,6-Difluoro-3-(5-fluoro-1-methyl-6-(5-oxa-8-azaspiro[3.5]nonan-8-yl)-1H-pyrazolo[3,4-b]pyridin-3-yl)-5-(trifluoromethyl)phenol]
< 0.1	Cn1nc(-c2cc(C(F)(F)F)c(F)c(O)c2F)c2cnc(N3CCOC4(CCS(=O)(=O)CC4)C3)cc21 [Compound 9.88, 4-(3-(2,4-Difluoro-3-hydroxy-5-(trifluoromethyl)phenyl)-1-methyl-1H-pyrazolo[4,3-c]pyridin-6-yl)-1-oxa-9-thia-4-azaspiro[5.5]undecane 9,9-dioxide]

Same assay, conditions: at 10 uM compound; read-out: HSD17β13 % inhibition at 10 uM

inhibition at 10 µM [%]	Compound
20	CN(c1cc2c(nn1)c(-c1cc(C(F)(F)F)c(F)c(O)c1O)nn2C)C1CCOCC1 [Compound 9.141, 3-Fluoro-6-(1-methyl-6-(methyl(tetrahydro-2H-pyran-4-yl)amino)-1H-pyrazolo[4,3-c]pyridazin-3-yl)-4-(trifluoromethyl)benzene-1,2-diol]
